pIC50: −log10 of the molar value. Read-outs that look alike come from different tables or passages of the source.
Experiments:
Format in all cases: biochemical
CCNE1 [1] = assay: In vitro transcription-translation (IVTT) assay, CCNE1 reporter; details: HeLa S3 lysate, sfGFP/mCherry ratio
Description: (§1) In vitro transcription-translation assay setup: Each assay includes a master mix containing lysate and shared components, a 96-well plate containing compound titrations for testing, a 96-well DNA plate with reporter constructs to be tested, 96-well skirted PCR plates, and 96-well flat-bottom, black, fluorescent assay plates. Reaction materials setup: (A) Master mix—15 mL conical tube (3 mL of HeLa S3 Lysate described above; 0.6 mL of ThermoFisher Accessory Proteins (#88882); 1.2 ml of ThermoFisher Reaction Mix (#88882); 0.54 mL of nuclease-free Water); (B) 96-Well Master Mix+Compound Plate (Half-log dilutions (30 μM−0.1 μM) of 4 compounds of interest are prepared in 100% DMSO); 96-Well DNA Plate (Five DNA constructs are plated into single columns within the plate. Row 1 of the column contains nuclease free H2O, all other wells contain 110 ng/μL plasmid DNA). Reactions are started by mixing 155 μL of master mix and 3.5 μL of compound serial dilutions, then 9.1 μL of master mix+compound mixture is aliquoted across 5 96-well plates. Reactions begin with final addition of 2 μL of DNA for a 11.1 μL reaction volume in each well. The entire plate is sealed, and incubated for 2 hrs at 30° C. After 2 hrs, quench the assay using 45 μL of PBS, and transfer 50 μL to a flat-bottom black microplate Quantify the sfGFP and mCherry signals from each well on each plate, taking 3 reads of each plate, and perform data analysis below.
(§2) In vitro transcription-translation assay data analysis: Each plate is read three times in channels for both sfGFP and mCherry signals. The average signal across these 3 reads is then calculated for further analysis. Control wells containing no DNA reporter are subtracted from reporter wells in the same column to remove auto-fluorescence of the lysate. Then, the ratio of sfGFP/mCherry is calculated per well, and these ratios are averaged across the triplicate experiments on the same plate. Finally, the ratio of each titration concentration is normalized to the no drug control to create the normalized stalling metric. The error on this measurement is determined by propagating error through the averaging and normalization steps. Values are plotted and fit for IC50 determination for each test sequence and titration of compound.

MYC = assay: In vitro transcription-translation (IVTT) assay, MYC reporter; details: IVTT assay, HeLa S3 lysate, MYC reporter, normalized sfGFP/mCherry ratio; half-log dilutions 30 μM-0.1 μM, 2 hrs at 30° C.
Summary of the method: (§3)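 Reporter: mCherry, P2A, then 3×FLAG-target peptide-sfGFP fusion, IRES-initiated; HeLa S3 lysate IVTT; cpd dilutions 30 μM−0.1 μM half-log in 100% DMSO (dilution-plate conc); DNA added last; 2 h, 30° C; PBS quench.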

MCL-1 = assay: In vitro transcription-translation (IVTT) assay, MCL-1 reporter; details: HeLa S3 lysate, read-out: MCL1 IC50
Summary of the method: as §3

CCND1 = assay: In vitro transcription-translation (IVTT) assay, CCND1 reporter; details: IVTT, HeLa S3 lysate, 2 hrs at 30° C.
Summary of the method: as §3

CCNTB1 = assay: In vitro transcription-translation (IVTT) assay, CCNTB1 reporter; details: HeLa S3 lysate, 2 hrs at 30° C.
Summary of the method: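 IC50 fitted from the sfGFP/mCherry fluorescence ratio, normalized to no-drug control after no-DNA background subtraction. Reactions ran 2 h at 30° C in HeLa S3 cell lysate with reporter plasmid DNA and half-log compound titrations (30 μM−0.1 μM, in DMSO).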

CCNE1 [2] = assay: In vitro transcription-translation (IVTT) assay, CCNE1 reporter; details: HeLa S3 lysate, 2 hrs at 30° C.
Description: Each preparation takes 8 cell pellets (4 ml packed volume each, approximately 1.0×10^9 cells per pellet). Thaw cell pellets from −80° C. on ice for 90 mins. Lay pellets horizontally on top of the ice and rotate every 30 mins to ensure even thawing. Once thawed, add 4 mL of cold lysis buffer to each pellet, and using a serological pipet, gently pipet up and down to break up clumps. Incubate resuspended cells in ice for an additional 30 mins (plunged into ice). During 30 min incubation, rinse and RNase-zap (Ambion) glass dounces (use loose pestle “A”), gently dry and place on ice until needed. Prepare RNase-free Eppendorf tubes for spinning and for batch storage. Add batch labels to 1.5-1.7 mL RNase-free microcentrifuge tubes (labeling scheme below). Each batch will have an extra 1.5-1.7 mL RNase-free microcentrifuge tube for 40 μL of lysate, label the top of this tube (labeling scheme below). After 30 min incubation, transfer all 8 mL of cell pellet to dounce. Cell lysis is complete after douncing 100 times. Aliquot cell lysis into 1.5-1.7 mL temporary-microcentrifuge tubes. Place tubes in centrifuge with “fins” out, and spin at 1,200×g for 5 mins. After the first spin use a 1 mL pipet to resuspend each tube and repeat spin. This acts as an additional lysis step, is more vigorous and increases lysate yield. During second spin get liquid N2 and a fresh conical tube on ice. After spin is complete, transfer supernatant (lysate) from microcentrifuge tubes into the 50 mL conical tube and keep on ice. Repeat steps 10-14 for all other cell pellets until completed. Once all cell lysate has been transferred to the 50 mL conical tube pipet to mix so the solution is homogenous. Transfer 1 mL of lysate into batch-labeled microcentrifuge tubes and flash freeze in liquid nitrogen. Be sure to pipet up and down to mix throughout transfer step. Place all tubes in the […] for long-term storage.
as §1
as §2, with “The error on this measurement is determined by propagating error through the averaging and normalization steps. Values are plotted and fit for IC50 determination for each test sequence and titration of compound.” left out

[3] = IVTT assay, sfGFP/mCherry ratio

pIC50 (CCNE1 [1])	pIC50 (MCL-1; [3])	pIC50 (CCND1)	pIC50 (CCNTB1)	pIC50 (CCNE1 [2])	pIC50 (MCL-1; IVTT, 2 hrs at 30° C.)	SMILES	pIC50 (MYC)
> 5.00	> 5.00	–	–	–	–	O=C(NCCOC(F)F)O[C@@H]1[C@@H](O)CN[C@@H]1Cc1ccc(-c2cnco2)cc1 [V193066, (2R,3S,4S)-4-hydroxy-2-(4-(oxazol-5-yl)benzyl)pyrrolidin-3-yl (2-(difluoromethoxy)ethyl)carbamate]	> 5.00
–	–	4.70 to 5.00	> 5.00	4.70 to 5.00	> 5.00	COc1ccc(C[C@H]2NC[C@H](O)[C@H]2OC(=O)NC[C@H]2CCN(c3ncccn3)C2)cc1 [V188171, (2R,3S,4S)-4-hydroxy-2-[(4-methoxyphenyl)methyl]pyrrolidin-3-yl N-{[(3R)-1-(pyrimidin-2-yl)pyrrolidin-3-yl]methyl}carbamate]	4.70 to 5.00
> 5.00	> 5.00	–	–	–	–	O=C(NCc1cnsc1)O[C@@H]1[C@@H](O)CN[C@@H]1Cc1ccc(C(F)F)cc1 [V192929, (2R,3S,4S)-2-(4-(difluoromethyl)benzyl)-4-hydroxypyrrolidin-3-yl (isothiazol-4-ylmethyl)carbamate]	> 5.00
> 5.00	> 5.00	–	–	–	–	O=C(NCC[C@@H]1CCNC1)O[C@@H]1[C@@H](O)CN[C@@H]1Cc1ccc(-c2cnco2)cc1 [V193011, (2R,3S,4S)-4-hydroxy-2-{[4-(1,3-oxazol-5-yl)phenyl]methyl}pyrrolidin-3-yl N-{2-[(3S)-pyrrolidin-3-yl]ethyl}carbamate]	> 5.00
–	–	> 5.00	> 5.00	> 5.00	> 5.00	COc1ccc(C[C@H]2NC[C@H](O)[C@H]2OC(=O)NCc2ccc3cn[nH]c3c2)cc1 [V188151, (2R,3S,4S)-4-hydroxy-2-[(4-methoxyphenyl)methyl]pyrrolidin-3-yl N-(1H-indazol-6-ylmethyl)carbamate]	> 5.00
> 5.00	> 5.00	–	–	–	–	O=C(NCC[C@@H]1CCN1)O[C@@H]1[C@@H](O)CN[C@@H]1Cc1ccc(C(F)F)cc1 [V193008, (2R,3S,4S)-2-{[4-(difluoromethyl)phenyl]methyl}-4-hydroxypyrrolidin-3-yl N-{2-[(2S)-azetidin-2-yl]ethyl}carbamate]	> 5.00
–	–	4.70 to 5.00	> 5.00	4.70 to 5.00	> 5.00	COc1ccc(C[C@H]2NC[C@H](O)[C@H]2OC(=O)NCCC2CCNCC2)cc1 [V188229, (2R,3S,4S)-4-hydroxy-2-[(4-methoxyphenyl)methyl]pyrrolidin-3-yl N-[2-(piperidin-4-yl)ethyl]carbamate]	> 5.00
–	–	> 5.00	> 5.00	> 5.00	> 5.00	O=C(NCc1cc[nH]c(=O)c1)O[C@@H]1[C@@H](O)CN[C@@H]1Cc1ccc(Cl)cc1 [V188274, (2R,3S,4S)-2-[(4-chlorophenyl)methyl]-4-hydroxypyrrolidin-3-yl N-[(2-oxo-1H-pyridin-4-yl)methyl]carbamate]	> 5.00
–	–	4.70 to 5.00	> 5.00	> 5.00	4.70 to 5.00	COc1ccc(C[C@H]2NC[C@H](O)[C@H]2OC(=O)NCCn2ccnc2N)cc1 [V188086, (2R,3S,4S)-4-hydroxy-2-[(4-methoxyphenyl)methyl]pyrrolidin-3-yl N-[2-(2-aminoimidazole-1-yl)ethyl]carbamate]	4.70 to 5.00

Continued, compound first:

SMILES	pIC50 (CCNE1 [1])	pIC50 (MCL-1; [3])	pIC50 (CCND1)	pIC50 (CCNTB1)	pIC50 (CCNE1 [2])	pIC50 (MCL-1; IVTT, 2 hrs at 30° C.)	pIC50 (MYC)
O=C(NCc1cnn(C(F)F)c1)O[C@@H]1[C@@H](O)CN[C@@H]1Cc1ccc(-c2cnco2)cc1 [V193078, (2R,3S,4S)-4-hydroxy-2-(4-(oxazol-5-yl)benzyl)pyrrolidin-3-yl ((1-(difluoromethyl)-1H-pyrazol-4-yl)methyl)carbamate]	> 5.00	> 5.00	–	–	–	–	> 5.00
O=C(NCC[C@H]1CCCCNC1)O[C@@H]1[C@@H](O)CN[C@@H]1Cc1ccc(-c2cnco2)cc1 [V193012, (2R,3S,4S)-4-hydroxy-2-(4-(oxazol-5-yl)benzyl)pyrrolidin-3-yl (2-((R)-azepan-3-yl)ethyl)carbamate]	> 5.00	> 5.00	–	–	–	–	> 5.00
O=C(NCc1cccc(F)c1)O[C@@H]1[C@@H](O)CN[C@@H]1Cc1ccc(-c2cnn(C(F)F)c2)cc1 [V193079, (2R,3S,4S)-2-(4-(1-(difluoromethyl)-1H-pyrazol-4-yl)benzyl)-4-hydroxypyrrolidin-3-yl (3-fluorobenzyl)carbamate]	> 5.00	> 5.00	–	–	–	–	> 5.00
O=C(NC[C@H]1CCOC1)O[C@@H]1[C@@H](O)CN[C@@H]1Cc1ccc(Cl)cc1 [V188287, (2R,3S,4S)-2-[(4-chlorophenyl)methyl]-4-hydroxypyrrolidin-3-yl N-[(3R)-oxolan-3-ylmethyl]carbamate]	–	–	> 5.00	> 5.00	> 5.00	> 5.00	> 5.00
O=C(NCc1cccc(C2CNC2)c1)O[C@@H]1[C@@H](O)CN[C@@H]1Cc1ccc(-c2cc(C(F)F)cs2)cc1 [V193243, (2R,3S,4S)-2-(4-(4-(difluoromethyl)thiophen-2-yl)benzyl)-4-hydroxypyrrolidin-3-yl (3-(azetidin-3-yl)benzyl)carbamate]	> 5.00	> 5.00	–	–	–	–	> 5.00
O=C(NCc1ccc2c(c1)CNC2)O[C@@H]1[C@@H](O)CN[C@@H]1Cc1ccc(-c2cc(C(F)F)cs2)cc1 [V193165, (2R,3S,4S)-2-(4-(4-(difluoromethyl)thiophen-2-yl)benzyl)-4-hydroxypyrrolidin-3-yl (isoindolin-5-ylmethyl)carbamate]	> 5.00	> 5.00	–	–	–	–	> 5.00
O=C(NCCc1cccc(F)c1)O[C@@H]1[C@@H](O)CN[C@@H]1Cc1ccc(-c2cnco2)cc1 [V193069, (2R,3S,4S)-4-hydroxy-2-(4-(oxazol-5-yl)benzyl)pyrrolidin-3-yl (3-fluorophenethyl)carbamate]	> 5.00	> 5.00	–	–	–	–	> 5.00
O=C(NCC[C@@H]1CCCCNC1)O[C@@H]1[C@@H](O)CN[C@@H]1Cc1ccc(-c2cnco2)cc1 [V193013, (2R,3S,4S)-4-hydroxy-2-{[4-(1,3-oxazol-5-yl)phenyl]methyl}pyrrolidin-3-yl N-{2-[(3S)-azepan-3-yl]ethyl}carbamate]	> 5.00	> 5.00	–	–	–	–	> 5.00
